Patent US9890117B2, “Benzamide compounds and related methods of use” (Northwestern University, priority 2012, dated 2018)

Target: T1, SIRT2 (Homo sapiens, UniProt Q8IXJ6)
T1 construct: recombinant active enzymes SIRT1, SIRT2, and the catalytically active fragment of SIRT3
T1 sequence (Q8IXJ6 1-389): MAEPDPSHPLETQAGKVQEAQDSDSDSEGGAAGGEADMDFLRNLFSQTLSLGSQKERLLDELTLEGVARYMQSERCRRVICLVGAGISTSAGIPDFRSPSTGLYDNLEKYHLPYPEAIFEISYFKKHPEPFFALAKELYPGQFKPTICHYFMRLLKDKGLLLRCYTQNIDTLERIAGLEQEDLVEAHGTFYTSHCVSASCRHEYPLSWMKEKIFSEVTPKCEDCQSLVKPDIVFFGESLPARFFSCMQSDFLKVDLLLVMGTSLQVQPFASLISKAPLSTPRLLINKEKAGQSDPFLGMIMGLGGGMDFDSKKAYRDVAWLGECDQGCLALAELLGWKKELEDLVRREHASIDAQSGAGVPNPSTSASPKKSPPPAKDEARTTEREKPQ
Experiment: Fluor-de-Lys biochemical sirtuin deacetylation assay, SIRT2
Details: for SIRT2 inhibition potency compared with AK-1: dose-response, five doses, side-by-side with AK-1

[1] = sulfone, sulfoxide, thioether derivatives of C2-8 scaffold

SMILES	inhibition at 10 µM [1]	other results
CN(c1ccc(Cl)cc1)S(=O)(=O)c1cccc(C(=O)NCc2ccccn2)c1 [Compound 53, 3-(N-(4-chlorophenyl)-N-methylsulfamoyl)-N-(pyridin-2-ylmethyl)benzamide]		% of SIRT2 Inhibition at 10 μM (C2-8 derivatives): 0%
CN(c1ccc(Cl)cc1)S(=O)(=O)c1cccc(C(=O)NCc2ccccn2)c1 [Compound 62, 3-(N-(4-chlorophenyl)-N-methylsulfamoyl)-N-(pyridin-2-ylmethyl)benzamide]		% of SIRT2 Inhibition at 10 μM (C2-8 derivatives): 3%
CN(c1ccc(Br)cc1)S(=O)(=O)c1cccc(C(=O)Nc2ccc(Cl)nn2)c1 [Compound 85, 3-(N-(4-bromophenyl)-N-methylsulfamoyl)-N-(6-chloropyridazin-3-yl)benzamide]		inhibition at 10 µM (C2-8 derivatives): 16%
CC(=O)c1ccc(NC(=O)c2cccc(S(=O)(=O)N(C)c3ccc(C(C)=O)cc3)c2)cc1 [Compound 109, N-(4-Acetylphenyl)-3-(N-(4-acetylphenyl)-N-methylsulfamoyl)benzamide]		SIRT2 inhibition potency compared with AK-1: equal or just slightly better potency
CN(c1ccc(S(C)(=O)=O)cc1)S(=O)(=O)c1cccc(C(=O)Nc2ccc(Cl)cc2)c1 [Compound 117, N-(4-Chlorophenyl)-3-(N-methyl-N-(4-(methylsulfonyl)phenyl)sulfamoyl)benzamide]		SIRT2 inhibition potency compared with AK-1: equal or just slightly better potency
C[S+]([O-])c1cccc(NC(=O)c2cccc(S(=O)(=O)N3CCCCCC3)c2)c1 (centres unmarked) [Compound 138, 3-(azepan-1-ylsulfonyl)-N-(3-(methylsulfinyl)phenyl)benzamide]		% of SIRT2 Inhibition at 10 μM (AK-1 derivatives): 4%
C[S+]([O-])c1cccc(NC(=O)c2cccc(S(=O)(=O)N3CCCCCC3)c2)c1 (centres unmarked) [Compound 141, 3-(azepan-1-ylsulfonyl)-N-(3-(methylsulfinyl)phenyl)benzamide]		% of SIRT2 Inhibition at 10 μM (AK-1 derivatives): 1%
O=C(Nc1ccc(Cl)cc1)c1cccc(S(=O)(=O)Cc2ccc(Cl)cc2)c1 [Compound 171, 3-((4-chlorobenzyl)sulfonyl)-N-(4-chlorophenyl)benzamide]	0%	
O=C(Nc1ccc(Br)cc1)c1cccc(S(=O)(=O)Cc2ccc(Cl)cc2)c1 [Compound 172, N-(4-bromophenyl)-3-((4-chlorobenzyl)sulfonyl)benzamide]	0%	
O=C(Nc1ccc(Cl)cn1)c1cccc(S(=O)(=O)Cc2ccc(Cl)cc2)c1 [Compound 173, 3-((4-chlorobenzyl)sulfonyl)-N-(5-chloropyridin-2-yl)benzamide]	2%	
C[S+]([O-])c1ccc(NC(=O)c2cccc(S(=O)(=O)Cc3ccc(Cl)cc3)c2)cc1 (centres unmarked) [Compound 175, 3-((4-chlorobenzyl)sulfonyl)-N-(4-(methylsulfinyl)phenyl)benzamide]	31%	
N#Cc1ccc(NC(=O)c2cccc(S(=O)(=O)Cc3ccc(Cl)cc3)c2)nc1 [Compound 176, 3-((4-chlorobenzyl)sulfonyl)-N-(5-cyanopyridin-2-yl)benzamide]	36%	
CS(=O)(=O)c1ccc(NC(=O)c2cccc(S(=O)(=O)Cc3ccc(Cl)cc3)c2)cc1 [Compound 177, 3-((4-chlorobenzyl)sulfonyl)-N-(4-(methylsulfonyl)phenyl)benzamide]	17%	
CC(=O)c1ccc(NC(=O)c2cccc(S(=O)(=O)Cc3ccc(Cl)cc3)c2)cc1 [Compound 178, N-(4-acetylphenyl)-3-((4-chlorobenzyl)sulfonyl)benzamide]	23%	
O=C(Nc1ccc(Cl)nn1)c1cccc(S(=O)(=O)Cc2ccc(Cl)cc2)c1 [Compound 179, 3-((4-chlorobenzyl)sulfonyl)-N-(6-chloropyridazin-3-yl)benzamide]	0%	
COc1ccc(CS(=O)(=O)c2cccc(C(=O)Nc3ccc(C#N)cc3)c2)cc1 [Compound 180, N-(4-cyanophenyl)-3-((4-methoxybenzyl)sulfonyl)benzamide]	50%	
N#Cc1ccc(NC(=O)c2cccc(SCc3ccc(Cl)cc3)c2)cc1 [Compound 181, 3-((4-chlorobenzyl)thio)-N-(4-cyanophenyl)benzamide]	81%	
